Article PMC10004634 (PLOS ONE, 2023)
Read-outs that look alike come from different tables or passages of the source.

Legend:
Assay in all cases: biochemical
Parameters in all cases: KINOMEscan scanMAX competition binding, DNA-tagged kinases, qPCR read-out, percent control at 300 nM
AKT3 = AKT3 (Homo sapiens, UniProt Q9Y243)
BRAF(V600E) = BRAF(V600E) (Homo sapiens, UniProt P15056, V600E)
EPHB2 = molecular target: T1, EPHB2 (Homo sapiens, UniProt P29323)
T1 sequence (P29323 1-1055): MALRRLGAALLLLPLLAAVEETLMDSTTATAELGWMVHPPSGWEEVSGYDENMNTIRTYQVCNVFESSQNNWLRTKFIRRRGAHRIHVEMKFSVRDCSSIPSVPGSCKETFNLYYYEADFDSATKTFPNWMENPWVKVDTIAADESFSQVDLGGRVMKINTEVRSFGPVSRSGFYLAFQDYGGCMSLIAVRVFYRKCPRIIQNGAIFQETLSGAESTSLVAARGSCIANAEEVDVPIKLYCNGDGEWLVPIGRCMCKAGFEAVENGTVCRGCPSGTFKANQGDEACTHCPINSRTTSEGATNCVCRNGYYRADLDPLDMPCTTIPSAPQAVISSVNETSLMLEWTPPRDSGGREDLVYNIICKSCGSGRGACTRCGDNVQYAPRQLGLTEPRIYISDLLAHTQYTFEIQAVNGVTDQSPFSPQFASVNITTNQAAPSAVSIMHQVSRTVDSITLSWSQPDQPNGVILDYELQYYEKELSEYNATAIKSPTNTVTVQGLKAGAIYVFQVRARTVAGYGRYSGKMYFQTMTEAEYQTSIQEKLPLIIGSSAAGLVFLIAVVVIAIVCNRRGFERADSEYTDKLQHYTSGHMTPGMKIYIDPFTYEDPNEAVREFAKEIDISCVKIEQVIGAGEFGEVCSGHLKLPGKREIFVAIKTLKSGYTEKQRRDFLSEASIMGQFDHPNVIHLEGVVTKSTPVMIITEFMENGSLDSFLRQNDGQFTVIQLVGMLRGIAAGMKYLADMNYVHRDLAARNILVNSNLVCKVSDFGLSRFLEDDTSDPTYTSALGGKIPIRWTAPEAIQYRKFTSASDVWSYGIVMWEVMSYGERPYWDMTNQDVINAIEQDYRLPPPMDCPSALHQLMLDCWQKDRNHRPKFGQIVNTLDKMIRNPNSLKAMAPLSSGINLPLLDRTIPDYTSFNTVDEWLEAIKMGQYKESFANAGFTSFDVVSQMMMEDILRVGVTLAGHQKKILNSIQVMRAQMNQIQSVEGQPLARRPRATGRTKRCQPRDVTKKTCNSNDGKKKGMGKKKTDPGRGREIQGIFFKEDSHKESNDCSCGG

KIT(V559D) = KIT(V559D) (Homo sapiens, UniProt P10721, V559D)
MST1R = MST1R (Homo sapiens, UniProt Q04912)
Sequence of MST1R (Q04912 whole entry): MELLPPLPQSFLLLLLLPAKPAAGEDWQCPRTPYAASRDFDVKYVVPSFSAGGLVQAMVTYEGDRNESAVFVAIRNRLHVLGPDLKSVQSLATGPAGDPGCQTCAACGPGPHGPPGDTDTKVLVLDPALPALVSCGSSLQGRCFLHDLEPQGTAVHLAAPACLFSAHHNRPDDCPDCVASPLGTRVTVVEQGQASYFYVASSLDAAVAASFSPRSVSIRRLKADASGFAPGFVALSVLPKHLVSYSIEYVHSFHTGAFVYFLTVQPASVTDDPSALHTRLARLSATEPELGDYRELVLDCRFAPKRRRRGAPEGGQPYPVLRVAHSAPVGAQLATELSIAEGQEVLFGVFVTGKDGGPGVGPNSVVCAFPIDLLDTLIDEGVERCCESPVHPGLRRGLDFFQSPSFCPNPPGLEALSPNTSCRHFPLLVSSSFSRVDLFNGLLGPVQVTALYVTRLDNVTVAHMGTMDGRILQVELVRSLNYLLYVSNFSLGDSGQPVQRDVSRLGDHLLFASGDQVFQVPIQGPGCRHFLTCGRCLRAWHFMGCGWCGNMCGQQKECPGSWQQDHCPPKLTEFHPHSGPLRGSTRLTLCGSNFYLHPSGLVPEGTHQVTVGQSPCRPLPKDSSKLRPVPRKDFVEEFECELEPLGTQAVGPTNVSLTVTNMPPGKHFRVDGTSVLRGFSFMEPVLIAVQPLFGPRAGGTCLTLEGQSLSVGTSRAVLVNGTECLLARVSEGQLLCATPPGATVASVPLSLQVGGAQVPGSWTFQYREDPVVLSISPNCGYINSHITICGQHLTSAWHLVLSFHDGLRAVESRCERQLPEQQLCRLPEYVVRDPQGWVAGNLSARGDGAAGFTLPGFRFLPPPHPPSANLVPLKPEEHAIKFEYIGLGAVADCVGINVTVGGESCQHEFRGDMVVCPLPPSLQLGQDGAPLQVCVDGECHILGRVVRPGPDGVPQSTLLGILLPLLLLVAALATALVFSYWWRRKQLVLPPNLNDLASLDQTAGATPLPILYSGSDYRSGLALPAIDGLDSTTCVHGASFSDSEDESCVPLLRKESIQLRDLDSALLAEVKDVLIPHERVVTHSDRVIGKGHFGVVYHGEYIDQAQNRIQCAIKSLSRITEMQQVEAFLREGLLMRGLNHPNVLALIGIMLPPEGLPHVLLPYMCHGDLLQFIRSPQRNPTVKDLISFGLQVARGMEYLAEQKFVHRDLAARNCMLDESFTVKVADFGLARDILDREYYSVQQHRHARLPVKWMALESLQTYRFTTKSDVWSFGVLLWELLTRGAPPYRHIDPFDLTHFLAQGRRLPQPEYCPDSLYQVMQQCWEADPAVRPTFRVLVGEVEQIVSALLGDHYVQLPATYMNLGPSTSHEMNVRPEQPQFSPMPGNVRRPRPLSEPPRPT

PAK7 = molecular target: T2, PAK7 (Homo sapiens, UniProt Q9P286)
T2 construct: gene PAK5
T2 sequence (Q9P286 whole entry): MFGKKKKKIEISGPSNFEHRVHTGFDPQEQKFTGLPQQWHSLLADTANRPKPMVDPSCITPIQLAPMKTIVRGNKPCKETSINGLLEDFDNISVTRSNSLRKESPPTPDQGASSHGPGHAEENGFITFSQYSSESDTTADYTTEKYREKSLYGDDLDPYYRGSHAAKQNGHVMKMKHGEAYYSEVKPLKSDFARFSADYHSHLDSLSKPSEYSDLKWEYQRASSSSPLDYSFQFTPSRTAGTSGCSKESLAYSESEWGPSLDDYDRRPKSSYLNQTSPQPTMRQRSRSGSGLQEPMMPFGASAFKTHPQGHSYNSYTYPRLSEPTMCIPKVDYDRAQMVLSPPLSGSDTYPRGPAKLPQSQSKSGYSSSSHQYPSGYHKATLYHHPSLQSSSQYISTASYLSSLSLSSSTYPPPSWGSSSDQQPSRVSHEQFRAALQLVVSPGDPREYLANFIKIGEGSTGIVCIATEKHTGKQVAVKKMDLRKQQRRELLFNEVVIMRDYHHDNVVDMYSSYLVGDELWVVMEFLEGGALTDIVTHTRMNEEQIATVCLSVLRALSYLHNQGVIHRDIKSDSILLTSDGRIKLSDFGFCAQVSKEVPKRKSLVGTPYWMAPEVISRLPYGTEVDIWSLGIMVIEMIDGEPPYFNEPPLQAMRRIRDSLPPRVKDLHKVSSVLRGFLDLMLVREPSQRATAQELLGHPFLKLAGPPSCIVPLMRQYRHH

SRPK3 = SRPK3 (Homo sapiens, UniProt Q9UPE1)
Sequence of SRPK3 (Q9UPE1 whole entry): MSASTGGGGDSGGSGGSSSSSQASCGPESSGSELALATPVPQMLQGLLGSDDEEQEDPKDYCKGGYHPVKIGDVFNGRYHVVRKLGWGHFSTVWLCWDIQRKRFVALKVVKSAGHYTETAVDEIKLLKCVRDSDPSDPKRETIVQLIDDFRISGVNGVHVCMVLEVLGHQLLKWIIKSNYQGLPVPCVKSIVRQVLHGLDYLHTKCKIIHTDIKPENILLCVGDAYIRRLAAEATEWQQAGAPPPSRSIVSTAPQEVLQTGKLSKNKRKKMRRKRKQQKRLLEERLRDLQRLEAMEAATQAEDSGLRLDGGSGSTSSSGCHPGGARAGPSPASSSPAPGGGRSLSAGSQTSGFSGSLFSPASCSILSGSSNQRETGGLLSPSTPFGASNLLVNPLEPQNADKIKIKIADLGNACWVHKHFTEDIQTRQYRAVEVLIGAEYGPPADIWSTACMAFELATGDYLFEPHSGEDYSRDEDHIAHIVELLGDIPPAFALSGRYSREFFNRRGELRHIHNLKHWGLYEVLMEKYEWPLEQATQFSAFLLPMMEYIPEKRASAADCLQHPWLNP

STK16 = STK16 (Homo sapiens, UniProt O75716)
Sequence of STK16 (O75716 whole entry): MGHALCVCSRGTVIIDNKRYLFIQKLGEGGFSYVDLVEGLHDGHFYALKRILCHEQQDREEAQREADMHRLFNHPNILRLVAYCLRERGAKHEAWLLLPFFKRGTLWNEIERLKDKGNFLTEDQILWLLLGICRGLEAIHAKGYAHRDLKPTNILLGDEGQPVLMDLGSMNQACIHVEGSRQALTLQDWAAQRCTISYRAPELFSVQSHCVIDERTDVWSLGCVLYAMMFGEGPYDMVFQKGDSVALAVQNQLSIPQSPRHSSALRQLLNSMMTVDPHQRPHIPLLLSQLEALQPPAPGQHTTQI

[1] = read-out: Percent control / Acalabrutinib
[2] = read-out: Percent control / Ibrutinib
[3] = read-out: Percent control / Tirabrutinib
[4] = read-out: Percent control / Zanubrutinib

Sequence of BRAF(V600E) (P15056 whole entry V600E): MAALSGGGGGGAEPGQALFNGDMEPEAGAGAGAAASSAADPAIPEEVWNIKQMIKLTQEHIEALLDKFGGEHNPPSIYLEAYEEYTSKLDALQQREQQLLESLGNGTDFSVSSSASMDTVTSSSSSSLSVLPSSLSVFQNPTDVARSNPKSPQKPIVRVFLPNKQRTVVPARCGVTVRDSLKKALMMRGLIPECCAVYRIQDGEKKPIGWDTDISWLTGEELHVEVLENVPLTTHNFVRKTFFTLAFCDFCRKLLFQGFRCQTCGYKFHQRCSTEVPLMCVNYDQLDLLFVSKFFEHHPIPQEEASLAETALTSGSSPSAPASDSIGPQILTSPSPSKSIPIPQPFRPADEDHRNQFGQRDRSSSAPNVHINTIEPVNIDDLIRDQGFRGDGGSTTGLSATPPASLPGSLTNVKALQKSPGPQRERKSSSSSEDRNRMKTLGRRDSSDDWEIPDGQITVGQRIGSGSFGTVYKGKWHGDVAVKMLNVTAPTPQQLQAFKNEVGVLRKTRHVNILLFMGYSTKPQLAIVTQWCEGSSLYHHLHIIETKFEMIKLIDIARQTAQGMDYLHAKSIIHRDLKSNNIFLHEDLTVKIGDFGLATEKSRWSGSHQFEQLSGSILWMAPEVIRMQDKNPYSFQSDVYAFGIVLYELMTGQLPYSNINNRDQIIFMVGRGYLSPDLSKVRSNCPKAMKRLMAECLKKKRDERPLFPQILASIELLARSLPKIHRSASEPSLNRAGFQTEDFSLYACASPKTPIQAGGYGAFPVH
Sequence of AKT3 (Q9Y243 whole entry): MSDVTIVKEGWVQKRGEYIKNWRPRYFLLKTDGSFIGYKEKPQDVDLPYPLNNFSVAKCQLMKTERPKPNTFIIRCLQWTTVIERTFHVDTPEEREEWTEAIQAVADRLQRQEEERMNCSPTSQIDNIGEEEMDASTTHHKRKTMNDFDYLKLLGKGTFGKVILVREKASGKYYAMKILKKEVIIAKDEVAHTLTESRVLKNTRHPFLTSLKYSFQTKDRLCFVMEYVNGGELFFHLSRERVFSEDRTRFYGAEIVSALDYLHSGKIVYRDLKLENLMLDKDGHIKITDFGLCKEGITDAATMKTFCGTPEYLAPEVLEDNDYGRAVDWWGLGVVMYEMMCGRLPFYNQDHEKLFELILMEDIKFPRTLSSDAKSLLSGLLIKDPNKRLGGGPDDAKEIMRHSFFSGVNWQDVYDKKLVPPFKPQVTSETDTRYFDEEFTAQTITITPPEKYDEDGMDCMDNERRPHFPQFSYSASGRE

CC#CC(=O)N1CCC[C@H]1c1nc(-c2ccc(C(=O)Nc3ccccn3)cc2)c2c(N)nccn12 [Acalabrutinib]
remaining binding at 0.3 µM (AKT3; [1]): 95%
remaining binding at 0.3 µM (BRAF(V600E); [1]): 70%
remaining binding at 0.3 µM (EPHB2; [1]): 89%
remaining binding at 0.3 µM (KIT(V559D); [1]): 84%
remaining binding at 0.3 µM (MST1R; [1]): 91%
remaining binding at 0.3 µM (PAK7; [1]): 76%
remaining binding at 0.3 µM (SRPK3; [1]): 86%
remaining binding at 0.3 µM (STK16; [1]): 86%

C=CC(=O)N1CCC[C@@H](n2nc(-c3ccc(Oc4ccccc4)cc3)c3c(N)ncnc32)C1 [Ibrutinib]
remaining binding at 0.3 µM (BRAF(V600E); [2]): 98%
remaining binding at 0.3 µM (KIT(V559D); [2]): 55%
remaining binding at 0.3 µM (MST1R; [2]): 90%
remaining binding at 0.3 µM (PAK7; [2]): 94%
remaining binding at 0.3 µM (SRPK3; [2]): 96%
remaining binding at 0.3 µM (STK16; [2]): 98%

CC#CC(=O)N1CC[C@@H](n2c(=O)n(-c3ccc(Oc4ccccc4)cc3)c3c(N)ncnc32)C1 [Tirabrutinib]
remaining binding at 0.3 µM (AKT3; [3]): 83%
remaining binding at 0.3 µM (EPHB2; [3]): 87%
remaining binding at 0.3 µM (MST1R; [3]): 98%
remaining binding at 0.3 µM (STK16; [3]): 82%

C=CC(=O)N1CCC([C@@H]2CCNc3c(C(N)=O)c(-c4ccc(Oc5ccccc5)cc4)nn32)CC1 [Zanubrutinib]
remaining binding at 0.3 µM (AKT3; [4]): 84%
remaining binding at 0.3 µM (BRAF(V600E); [4]): 88%
remaining binding at 0.3 µM (EPHB2; [4]): 100%
remaining binding at 0.3 µM (KIT(V559D); [4]): 87%
remaining binding at 0.3 µM (MST1R; [4]): 98%
remaining binding at 0.3 µM (PAK7; [4]): 87%
remaining binding at 0.3 µM (SRPK3; [4]): 100%
remaining binding at 0.3 µM (STK16; [4]): 100%
